Laboratory results as given in patent EP1978023A1, “Pyridazines as fungicides” (Bayer CropScience Aktiengesellschaft, priority 2007, dated 2008).

Columns and labels:
[1] = HPLC reversed-phase C 18; 40°C; 0.1% aqueous formic acid and acetonitrile, linear gradient 10% to 95% acetonitrile
Excerpt: (§1) Die Kalibrierung wurde jeweils mit unverzweigten Alkan-2-onen (3 bis 16 Kohlenstoff Atome) mit bekannten logP Werten durchgeführt (Bestimmung von den logP Werten über die Retentionszeiten durch lineare Interpolation zwischen zwei bestimmten Alkanonen).

Excerpt for physchem: as §1

Row | chromatographic logP (physchem) | log p [1] | SMILES
1 | 2.9 | – | CC1(O)OC(=O)C(c2cccs2)=C1c1ccc(Cl)s1 (stereo not shown) [(3), 4-(5-Chlor-2-thienyl)-3-(2-thienyl)-5-hydroxy-5-methylfuran-2(5H)-on]
2 | 2.71 | – | Cc1n[nH]c(=O)c(-c2cccs2)c1-c1ccc(Cl)s1 [(4), 5-(5-Chlor-2-thienyl)-4-(2-thienyl)-6-methylpyridazin-3(2H)-on]
3 | 3.56 | 3,56 | Cc1nnc(Cl)c(-c2cccs2)c1-c1ccc(Cl)s1 [Beispiel 11, 3-Chlor-5-(5-chlor-2-thienyl)-4-(2-thienyl)-6-methylpyridazin]
